According to patent publication US9738673B1, “Ferrocene derivative, preparation method and use thereof” (XIAMEN INSTITUTE OF RARE EARTH MATERIALS, priority 2016, dated 2017):

Columns and labels:
[1] = tested on: breast cancer cell line MCF-7; assay: In vitro anticancer activity MTT assay, MCF-7; assay type: cell-based, human; settings: 48 h, MCF-7 cells
Protocol: (§1) Using a wavelength-tunable microplate reader absorbance value (A595) was measured at 595 nm. Inhibitory ratio was calculated with the following formula: […]
(§2) wherein, IC50 values were calculated using the GraphPad Prism 5 software.

[2] = tested on: human lung cancer cell line A549; assay: In vitro anticancer activity MTT assay, A549; assay type: cell-based; settings: 48 h, A549 cells
Protocol: as §1, §2

[3] = tested on: colorectal cancer cell line HCT-116; assay: In vitro anticancer activity MTT assay, HCT116; assay type: cell-based, human; settings: 48 h, HCT116 cells
Protocol: as §1, §2

Row | SMILES | IC50 [1] [µM] | IC50 [2] [µM] | IC50 [3] [µM]
1 | COc1ccc(-c2cc(COC(=O)[c-]3cccc3)on2)cc1.COc1ccc(-c2cc(COC(=O)[c-]3cccc3)on2)cc1.[Fe+2] [YJP-6] | 182 |  | 
2 | Cc1cc(C)c(-c2cc(COC(=O)[c-]3cccc3)on2)c(C)c1.Cc1cc(C)c(-c2cc(COC(=O)[c-]3cccc3)on2)c(C)c1.[Fe+2] [YJP-5] | 142 | 189 | 
3 | CC(C)(C)c1ccc(-c2cc(COC(=O)[c-]3cccc3)on2)cc1.CC(C)(C)c1ccc(-c2cc(COC(=O)[c-]3cccc3)on2)cc1.[Fe+2] [YJP-4] | 150 | 220 | 2180
4 | O=C(OCc1cc(-c2ccc(C(F)(F)F)cc2)no1)[c-]1cccc1.O=C(OCc1cc(-c2ccc(C(F)(F)F)cc2)no1)[c-]1cccc1.[Fe+2] [YJP-9] | 133 |  | 
5 | O=C(OCc1cc(-c2ccc([N+](=O)[O-])cc2)no1)[c-]1cccc1.O=C(OCc1cc(-c2ccc([N+](=O)[O-])cc2)no1)[c-]1cccc1.[Fe+2] [YJP-19] | 178 | 530 | 157
6 | CCc1ccc(-c2cc(COC(=O)[c-]3cccc3)on2)cc1.CCc1ccc(-c2cc(COC(=O)[c-]3cccc3)on2)cc1.[Fe+2] [YJP-3] | 86.8 |  | 
7 | O=C(OCc1cc(-c2ccc(Cl)cc2Cl)no1)[c-]1cccc1.O=C(OCc1cc(-c2ccc(Cl)cc2Cl)no1)[c-]1cccc1.[Fe+2] [YJP-15] | 190 | 222 | 234
8 | O=C(OCc1cc(-c2ccccc2)no1)[c-]1cccc1.O=C(OCc1cc(-c2ccccc2)no1)[c-]1cccc1.[Fe+2] [YJP-1] | 990 | 252 | 
9 | O=C(OCc1cc(-c2ccc(Br)cc2)no1)[c-]1cccc1.O=C(OCc1cc(-c2ccc(Br)cc2)no1)[c-]1cccc1.[Fe+2] [YJP-16] | 156 | 251 | 63.9
10 | Cc1ccc(-c2cc(COC(=O)[c-]3cccc3)on2)cc1.Cc1ccc(-c2cc(COC(=O)[c-]3cccc3)on2)cc1.[Fe+2] [YJP-2] | 136 | 198 | 220
11 | O=C(OCc1cc(-c2ccccc2Cl)no1)[c-]1cccc1.O=C(OCc1cc(-c2ccccc2Cl)no1)[c-]1cccc1.[Fe+2] [YJP-14] | 172 | 450 | 228
12 | O=C(OCc1cc(-c2ccc(F)cc2)no1)[c-]1cccc1.O=C(OCc1cc(-c2ccc(F)cc2)no1)[c-]1cccc1.[Fe+2] [YJP-11] | 138 | 2860 | 
13 | O=C(OCc1cc(-c2ccccc2F)no1)[c-]1cccc1.O=C(OCc1cc(-c2ccccc2F)no1)[c-]1cccc1.[Fe+2] [YJP-12] | 159 | 168 | 149
14 | O=C(OCc1cc(-c2ccc(Cl)cc2)no1)[c-]1cccc1.O=C(OCc1cc(-c2ccc(Cl)cc2)no1)[c-]1cccc1.[Fe+2] [YJP-13] | 169 | 690 | 486
15 | COc1ccccc1-c1cc(COC(=O)[c-]2cccc2)on1.COc1ccccc1-c1cc(COC(=O)[c-]2cccc2)on1.[Fe+2] [YJP-7] | 157 | 868 | 
16 | COc1cccc(-c2cc(COC(=O)[c-]3cccc3)on2)c1.COc1cccc(-c2cc(COC(=O)[c-]3cccc3)on2)c1.[Fe+2] [YJP-8] | 138 | 142 | 236
